Ends that are not written are not given here. Peptide text beside a SMILES is read from it. * marks the point of attachment. Biotin = O=C1N[C@H]2[C@H](CS[C@H]2CCCCC(=O)*)N1
Experiments:
His-DDX3X^414-582 [1] = target: T1, His-DDX3X^414-582 (Homo sapiens, UniProt O00571); assay: Direct-binding ELISA of biotinylated CK1 peptides on coated His-DDX3X^414-582; settings: 1 µg/well biotinylated peptide, 2.5 h, room temperature; HRP-streptavidin/ABTS, 405 nm; data normalized to δ-141 = 100%; n=3
T1 construct: contained 10 µM His-DDX3X^414-582; His; made in house; host or cells: E. coli Rosetta2 (pET28a)
Description: According to the amino acid sequences of the N-terminal and the kinase domain of human CK1δ (UniProt entry P48730), 30 CK1δ-derived peptides were generated. In order to investigate the effects of sequence-specific differences in the sequence of CK1ε (UniProt entry P49674) compared with CK1δ, seven additional CK1ε-derived peptides were generated (Fig. S2). Each peptide consists of 15 amino acids with the first and last five amino acids always overlapping the previous and the following peptide, respectively. At the N-terminus the peptides were coupled to biotin via a four amino acid spacer sequence (SGSG). For peptide position and sequence information see Fig. S2. All peptides were pre-dissolved in DMSO (final concentration of 12.5% DMSO in the peptide stock).
His-DDX3X^414-582 protein fragment was coated onto 96-well Nunc MaxiSorp plates (NUNC, Denmark) at a final concentration of 0.01 µg/µl in 100 mM sodium carbonate buffer (pH 9.6) at 4°C overnight. Unspecific binding sites were blocked with 5% FCS in PBS. Biotinylated CK1δ- and CK1ε-derived peptides (1 µg/well) were added and incubated for 2.5 h at room temperature. DMSO (0.35%) and water were used as negative controls. Detection of the bound biotinylated peptides was performed by incubation with HRP-streptavidin (1:8000 in 0.5% FCS in PBS). Finally, plates were incubated with ABTS detection reagent [50 mM potassium phosphate buffer, pH 5.7, 5% ABTS solution (1 mg/ml), 0.05% H2O2]. Absorption was measured at 405 nm after incubation for 40 min.

His-DDX3X^414-582 [2] = target: T1, His-DDX3X^414-582; assay: Fluorescence thermal shift (FTS) assay; format: binding; settings: 20 µM peptide, 10 µM His-DDX3X^414-582, 50 mM HEPES pH 8, SYPRO-Orange
Method: FTS reactions were performed in a total volume of 20 µl in 50 mM HEPES (pH 8) and contained 10 µM His-DDX3X^414-582, a final concentration of 20 µM of each indicated CK1δ- or CK1ε-derived peptide, as well as 10×SYPRO-Orange (Invitrogen). DMSO (0.35%) and water were used as controls. Measurements were performed in a LightCycler 480 device for real-time PCR (Roche) according to the manufacturer's instructions. Respective protein melting temperatures were calculated using the protein-melting evaluation software supplied by Roche.

[3] = test system: DDX3X-stimulated CK1ε (CK1εΔC); assay: In vitro radioactive kinase assay, DDX3X-stimulated CK1ε activity; format: biochemical, human; settings: 0.3 µM peptide; recombinant DDX3X and CK1εΔC; CK1εΔC alone set to 1; n=3
Method: (§1) Kinase assays were carried out essentially as described ([Cruciat et al., 2013]). For kinase assays, full-length DDX3X protein was expressed and purified from HEK293T cells as described for the ATPase assay. Deletion constructs were purified from E. coli. The eluted proteins were visualized using Coomassie Blue and the intensity of the protein bands was measured using ImageJ. The amounts used for kinase assays were estimated based on this staining. Where indicated, dsRNA was premixed with proteins at room temperature (RT) for 15 min before subjecting samples to radioactive kinase assays. The CK1 substrate peptide […] for the kinase assay and samples was analyzed using p81 phosphocellulose (Biomol) as described ([Zhai et al., 1992]). 0.3 µM CK1δ/ε-derived and control peptides were used ([Schacherl et al., 2015]). For mass spectrometric analyses DDX3X helicase core (His-DDX3X^168-582) as well as the C-terminal helicase domain (His-DDX3X^414-582) were in vitro phosphorylated by CK1ε. Also, reactions without addition of kinase were performed and analyzed in order to correct for false-positive results. Mass spectrometry data acquisition and analysis of trypsin-digested samples were performed at the Core Unit Mass Spectrometry and Proteomics (Ulm University) essentially as described in [Meng et al. (2016)].

CK1ε = assay: In vitro radioactive kinase assay, CK1ε activity itself (no DDX3X stimulation); format: biochemical, human; settings: 0.3 µM peptide; n=3
Method: as §1

[4] = test system: endogenous CK1 / CK1 sensor in HEK293T cells; assay: CK1 FRET biosensor, microplate reader FRET/CFP ratio; format: cell-based, human; settings: HEK293T with CK1 sensor; for effect of transfected peptide on FRET/CFP ratio (endogenous CK1 activity): peptide transfected (Metafectene), analyzed 1.5 h after peptide transfection, n=3; for size of reduction of CK1 biosensor activity relative to CK1-specific small-molecule inhibitors or DDX3X siRNA: transfected peptide
Method: HEK293T cells were seeded at a density of 20,000 cells/well on 96-well black microplates (PS, μClear, clear bottom, chimney well, Greiner No. 655090). Transfection was performed as described above. Unless indicated otherwise, the respective cell populations were transfected with 50-100 ng CK1 FRET biosensor, 100 ng regulator (i.e. N-Flag DDX3X) and 1-10 ng kinase (i.e. N-Flag CK1ε). Either empty pCS2 N-Flag vector or luciferase were used to transfect the same amount of DNA in every well. Generally, the different samples were run in triplicate for each individual experiment. Owing to the varying values for the FRET/CFP ratios based on transfection efficiency, cell density and the time point of analysis, we always set the FRET/CFP ratio of cells only transfected with the CK1 sensor to 1 in order to compare individual experiments. Importantly, the individual figures with the CK1 sensor represent only experiments performed on the same 96-well plate with the same cell density, transfection efficiency and time point.
Where applicable, the small-molecule CK1 inhibitor D4476 (BioVision) was added to the cells 2-4 h prior to the analysis. For each triplicate the respective volume of D4476 (in DMSO) was added together with 1 μl Fugene HD (Promega) to 60 μl serum-free medium. The solution was mixed, incubated for 15 min and added to the cells. […] In the corresponding controls an equal amount of DMSO instead of the inhibitor was added to the medium. Analysis was performed 48-60 h after transfection on an Infinite M1000 PRO microplate reader (Tecan) by exciting CFP with a wavelength of 433 nm and measuring the resulting emission at 460-600 nm in 2 nm increments. Fluorometric spectra were background subtracted with spectra recorded from wells with non-transfected cells. Resulting FRET/CFP ratios were calculated by dividing the intensity values at the respective peaks (478 nm for CFP, 528 nm for YFP) and analyzed essentially as described ([Fritz et al., 2013]). Where indicated, CK1δ/ε-derived peptides were transfected into cells using Metafectene (Biontex) 1 hour before measurements.

[5] = test system: DDX3X^414-582 (C-terminal helicase domain); assay: Biolayer interferometry (BLItz); format: binding, human; settings: biotin-peptide 100 µM loaded on streptavidin chip; DDX3X^414-582 250 µM; 50 mM Tris-HCl pH 7.5, 10 mM NaCl; 60 s association/dissociation; three recordings
Method: Biolayer interferometry was measured on the BLItz system (Pall ForteBIO LLC). High Precision Streptavidin biosensor chips were loaded three times with 100 µM biotin-coupled CK1 peptides in 50 mM Tris-HCl (pH 7.5), 10 mM NaCl for 30 s, followed by a step to block free biotin binding sites with 10 µM biocytin. Association and dissociation times of DDX3X^414-582 (250 µM) were fixed at 60 s. Binding and dissociation curves were recorded three times.

T1 sequence (O00571 414-582): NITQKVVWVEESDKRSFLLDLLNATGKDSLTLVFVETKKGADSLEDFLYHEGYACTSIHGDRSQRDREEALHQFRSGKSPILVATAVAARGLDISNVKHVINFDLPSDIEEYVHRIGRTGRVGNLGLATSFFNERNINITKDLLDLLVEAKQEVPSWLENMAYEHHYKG

| Binding to His-DDX3X^414-582 (ELISA) (His-DDX3X^414-582 [1]) | Tm shift / binding by FTS, in words (His-DDX3X^414-582 [2]) | effect of peptide on CK1ε kinase activity itself (CK1ε) | binding to C-terminal helicase domain of DDX3X (BLItz) [5] | Compound | effect of peptide on DDX3X stimulation of CK1ε kinase activity [3] | effect of transfected peptide on FRET/CFP ratio (endogenous CK1 activity) [4] | size of reduction of CK1 biosensor activity relative to CK1-specific small-molecule inhibitors or DDX3X siRNA [4] |
| --- | --- | --- | --- | --- | --- | --- | --- |
| to a lesser extent | clearly demonstrated | without affecting kinase activity itself | strongly interacted with δ-1 | CC[C@H](C)[C@H](NC(=O)[C@H](CCCCN)NC(=O)[C@H](CCCNC(=N)N)NC(=O)CNC(=O)[C@H](CC(C)C)NC(=O)[C@H](CCCNC(=N)N)NC(=O)[C@H](Cc1ccc(O)cc1)NC(=O)[C@H](CCCNC(=N)N)NC(=O)[C@H](CC(N)=O)NC(=O)CNC(=O)[C@@H](NC(=O)[C@H](CCCNC(=N)N)NC(=O)[C@H](CC(C)C)NC(=O)[C@H](CCC(=O)O)NC(=O)[C@H](CCSC)NC(=O)CNC(=O)[C@H](CO)NC(=O)CNC(=O)[C@H](CO)NC(=O)CCCC[C@@H]1SC[C@@H]2NC(=O)N[C@@H]21)C(C)C)C(=O)O [δ-1] (HELM PEPTIDE1{[O=C1N[C@H]2[C@H](CS[C@H]2CCCCC(=O)[*:2])N1].S.G.S.G.M.E.L.R.V.G.N.R.Y.R.L.G.R.K.I}$$$$V2.0; C-terminus assumed) | impaired the stimulation of CK1ε kinase activity | reduced the FRET/CFP ratio | less pronounced |
| to a lesser extent | clearly demonstrated | without affecting kinase activity itself | no binding | CC[C@H](C)[C@H](NC(=O)[C@H](CCCCN)NC(=O)[C@H](CO)NC(=O)[C@H](CCC(=O)O)NC(=O)[C@@H](NC(=O)[C@H](Cc1c[nH]cn1)NC(=O)[C@H](CC(C)C)NC(=O)[C@H](CCC(N)=O)NC(=O)[C@@H]1CCCN1C(=O)[C@H](Cc1c[nH]cn1)NC(=O)[C@H](CCCCN)NC(=O)[C@@H](NC(=O)[C@H](CCCCN)NC(=O)[C@@H](NC(=O)[C@H](CS)NC(=O)CNC(=O)[C@H](CO)NC(=O)CNC(=O)[C@H](CO)NC(=O)CCCC[C@@H]1SC[C@@H]2NC(=O)N[C@@H]21)C(C)C)[C@@H](C)O)[C@@H](C)CC)C(=O)O [δ-41] (HELM PEPTIDE1{[O=C1N[C@H]2[C@H](CS[C@H]2CCCCC(=O)[*:2])N1].S.G.S.G.C.V.K.T.K.H.P.Q.L.H.I.E.S.K.I}$$$$V2.0; C-terminus assumed) | impaired the stimulation of CK1ε kinase activity | reduced the FRET/CFP ratio | less pronounced |
| non-binding | did not cause Tm shifts |  |  | biotin-SGSG-APPTPLTPTSHTANT [δ-341] |  | but not ε-1 or the negative control peptide δ-341, reduced the FRET/CFP ratio |  |
| strongest binding |  |  |  | δ-31: CK1δ-derived 15mer peptide (Biotin-SGSGAGEEVAIKLECVKTK) |  |  |  |
| strongest binding |  |  |  | δ-91: CK1δ-derived 15mer peptide (Biotin-SGSGDLFNFCSRKFSLKTV) |  |  |  |
| showed no binding | did not cause Tm shifts |  |  | δ-101: CK1δ-derived 15mer peptide, negative control (Biotin-SGSGSLKTVLLLADQMISR) | did not interfere with the DDX3X stimulation |  |  |
| strongest binding |  |  |  | δ-141: CK1δ-derived 15mer peptide (Biotin-SGSGKGNLVYIIDFGLAKK) |  |  |  |
| to a lesser extent |  |  |  | δ-231: CK1δ-derived 15mer peptide (Biotin-SGSGKKMSTPIEVLCKGYP) |  |  |  |
| to a lesser extent | clearly demonstrated | without affecting kinase activity itself |  | ε-41: CK1ε-derived 15mer peptide (Biotin-SGSGCVKTKHPQLHIESKF) | impaired the stimulation of CK1ε kinase activity | reduced the FRET/CFP ratio | less pronounced |
| strongest binding |  |  |  | ε-61: CK1ε-derived 15mer peptide (Biotin-SGSGGGVGIPSIKWCGAEG) |  |  |  |
| strongest binding |  |  |  | ε-241: CK1ε-derived 15mer peptide (Biotin-SGSGCKGYPSEFSTYLNFC; cysteine pairing not given here) |  |  |  |

Source: article PMC5818060 (Journal of Cell Science, 2018)
